Data from patent US20240360113A1, “AMINOARYL-INTEGRIN AGONISTS COMPOUNDS” (Texas Heart Institute, priority 2021, published 2024).

How the values were obtained:
[1] = target: T1, α4β1/VCAM-1 (Homo sapiens, UniProt P05556+P13612); assay: Static cell adhesion assay, Jurkat cells on VCAM-1 (VLA-4 agonist activity); assay type: cell-based; details: EC50 relative to THI0349 (average 11 uM) run on the same plate; Jurkat cells, 50% FBS
T1 construct: The Jurkat (VCAM-1 assays) and HSB (ICAM-1 assays) cell lines were obtained from American Type Culture Collection; endogenous in cells; host or cells: Jurkat (ATCC)
T1 sequence (P13612 34-1032): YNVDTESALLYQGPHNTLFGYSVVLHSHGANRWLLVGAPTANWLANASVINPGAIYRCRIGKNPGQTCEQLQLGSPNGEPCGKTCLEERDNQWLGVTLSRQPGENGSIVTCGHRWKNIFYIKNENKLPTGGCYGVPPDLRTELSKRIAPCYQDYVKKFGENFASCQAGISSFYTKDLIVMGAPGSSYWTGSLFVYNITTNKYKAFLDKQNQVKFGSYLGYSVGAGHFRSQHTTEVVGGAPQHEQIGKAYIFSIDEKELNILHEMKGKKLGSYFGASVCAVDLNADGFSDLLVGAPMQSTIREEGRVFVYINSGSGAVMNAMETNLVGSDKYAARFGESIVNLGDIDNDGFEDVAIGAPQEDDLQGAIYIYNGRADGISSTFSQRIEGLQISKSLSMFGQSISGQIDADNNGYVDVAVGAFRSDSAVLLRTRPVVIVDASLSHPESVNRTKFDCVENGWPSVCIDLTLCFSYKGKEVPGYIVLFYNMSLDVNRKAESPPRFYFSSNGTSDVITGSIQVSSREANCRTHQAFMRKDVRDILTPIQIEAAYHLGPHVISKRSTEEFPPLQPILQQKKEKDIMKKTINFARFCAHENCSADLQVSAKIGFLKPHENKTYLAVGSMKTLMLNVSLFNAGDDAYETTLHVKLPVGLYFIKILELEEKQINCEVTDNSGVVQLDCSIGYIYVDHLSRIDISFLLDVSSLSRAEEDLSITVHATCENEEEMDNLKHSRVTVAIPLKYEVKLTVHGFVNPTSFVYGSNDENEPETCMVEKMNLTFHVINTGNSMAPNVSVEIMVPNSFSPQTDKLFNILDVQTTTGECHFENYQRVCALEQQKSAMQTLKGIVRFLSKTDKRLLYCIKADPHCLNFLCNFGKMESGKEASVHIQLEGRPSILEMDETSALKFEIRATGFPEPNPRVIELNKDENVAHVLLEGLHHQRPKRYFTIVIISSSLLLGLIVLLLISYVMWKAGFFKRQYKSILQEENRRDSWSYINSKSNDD
T1 sequence (P05556 21-798): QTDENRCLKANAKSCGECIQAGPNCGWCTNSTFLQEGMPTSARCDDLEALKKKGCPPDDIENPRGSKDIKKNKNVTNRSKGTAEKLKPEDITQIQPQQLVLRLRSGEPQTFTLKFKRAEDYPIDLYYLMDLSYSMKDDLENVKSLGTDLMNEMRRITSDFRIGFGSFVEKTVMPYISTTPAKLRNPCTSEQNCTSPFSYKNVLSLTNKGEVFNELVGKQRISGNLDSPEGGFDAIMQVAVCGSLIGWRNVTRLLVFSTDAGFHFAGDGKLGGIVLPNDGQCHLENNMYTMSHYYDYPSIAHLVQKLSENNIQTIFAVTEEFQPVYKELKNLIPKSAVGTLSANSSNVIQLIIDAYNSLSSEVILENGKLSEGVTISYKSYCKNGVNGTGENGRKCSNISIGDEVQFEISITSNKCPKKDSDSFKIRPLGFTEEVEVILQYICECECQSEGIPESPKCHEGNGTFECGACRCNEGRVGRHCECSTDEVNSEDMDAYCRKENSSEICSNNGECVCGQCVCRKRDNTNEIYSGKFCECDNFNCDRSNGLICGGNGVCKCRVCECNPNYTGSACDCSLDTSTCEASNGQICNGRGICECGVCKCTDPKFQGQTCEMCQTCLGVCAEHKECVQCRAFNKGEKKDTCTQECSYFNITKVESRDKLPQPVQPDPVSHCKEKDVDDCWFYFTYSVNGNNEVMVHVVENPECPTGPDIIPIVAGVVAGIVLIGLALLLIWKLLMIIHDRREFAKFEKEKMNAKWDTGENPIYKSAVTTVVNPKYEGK
Procedure: (§1) For in vitro cell adhesion assays, compounds were dissolved in DMSO to make a series of stock solutions such that a 1:100 dilution in assay buffer would yield the desired final working concentrations in 1% DMSO (vehicle). Human VCAM-1 and ICAM-1 were purchased from R&D Systems (Minneapolis, MN). The Jurkat (VCAM-1 assays) and HSB (ICAM-1 assays) cell lines were obtained from American Type Culture Collection (Manassas, VA) and were maintained in recommended culture media.
(§2) Assays were performed as previously described in Vanderslice et al., (2010), Biochem Biophys Res Commun 400, 619-624; and Vanderslice et al., (2013) J Biol Chem 288, 19414-19428. VCAM-1 or ICAM-1 ligand in 50 μL of 50 mM Tris-HCl (pH 7.4), 150 mM NaCl, (TBS) was added to wells of a 96-well plate and allowed to coat overnight at 4° C. To maximize the window to evaluate agonist activity, a sub-optimal coating concentration of ligand was used, typically 0.5 and 5 μg/mL in 50 μL TBS for VCAM-1 and ICAM-1 respectively. This ligand concentration corresponded approximately to that which would yield <5% adhesion as determined by dose-response curves. Briefly, 2×10^6 cells were labeled for 30 minutes with calcein-AM (Molecular Probes), washed, resuspended in binding buffer, and added to triplicate wells of ligand-coated plates (2×10^5 cells/well) that had been blocked with 2% BSA. After a 30-minute incubation at 37° C., the plates were washed 3 times with binding buffer, the adherent cells were lysed, and fluorescence was measured on a Tecan Safire^2 plate reader. The binding buffer was PBS with 1 mM MgCl2, 50% FBS for α4β1/VCAM-1 assays and PBS with 2 mM MgCl2, 5 mM EGTA, 50% FBS for αLβ2/ICAM-1 assays. EC50 is defined as the concentration of compound required to achieve 50% of the maximal response.

[2] = target: T2, αLβ2/ICAM-1 (Homo sapiens, UniProt P05107+P20701); assay: Static cell adhesion assay, HSB cells on ICAM-1 (LFA-1; LAD); assay type: cell-based; details: RFU of compound / RFU of THI0349, both at the same concentration
T2 construct: The Jurkat (VCAM-1 assays) and HSB (ICAM-1 assays) cell lines were obtained from American Type Culture Collection; endogenous in cells; host or cells: HSB (ATCC)
T2 sequence (P20701 26-1170): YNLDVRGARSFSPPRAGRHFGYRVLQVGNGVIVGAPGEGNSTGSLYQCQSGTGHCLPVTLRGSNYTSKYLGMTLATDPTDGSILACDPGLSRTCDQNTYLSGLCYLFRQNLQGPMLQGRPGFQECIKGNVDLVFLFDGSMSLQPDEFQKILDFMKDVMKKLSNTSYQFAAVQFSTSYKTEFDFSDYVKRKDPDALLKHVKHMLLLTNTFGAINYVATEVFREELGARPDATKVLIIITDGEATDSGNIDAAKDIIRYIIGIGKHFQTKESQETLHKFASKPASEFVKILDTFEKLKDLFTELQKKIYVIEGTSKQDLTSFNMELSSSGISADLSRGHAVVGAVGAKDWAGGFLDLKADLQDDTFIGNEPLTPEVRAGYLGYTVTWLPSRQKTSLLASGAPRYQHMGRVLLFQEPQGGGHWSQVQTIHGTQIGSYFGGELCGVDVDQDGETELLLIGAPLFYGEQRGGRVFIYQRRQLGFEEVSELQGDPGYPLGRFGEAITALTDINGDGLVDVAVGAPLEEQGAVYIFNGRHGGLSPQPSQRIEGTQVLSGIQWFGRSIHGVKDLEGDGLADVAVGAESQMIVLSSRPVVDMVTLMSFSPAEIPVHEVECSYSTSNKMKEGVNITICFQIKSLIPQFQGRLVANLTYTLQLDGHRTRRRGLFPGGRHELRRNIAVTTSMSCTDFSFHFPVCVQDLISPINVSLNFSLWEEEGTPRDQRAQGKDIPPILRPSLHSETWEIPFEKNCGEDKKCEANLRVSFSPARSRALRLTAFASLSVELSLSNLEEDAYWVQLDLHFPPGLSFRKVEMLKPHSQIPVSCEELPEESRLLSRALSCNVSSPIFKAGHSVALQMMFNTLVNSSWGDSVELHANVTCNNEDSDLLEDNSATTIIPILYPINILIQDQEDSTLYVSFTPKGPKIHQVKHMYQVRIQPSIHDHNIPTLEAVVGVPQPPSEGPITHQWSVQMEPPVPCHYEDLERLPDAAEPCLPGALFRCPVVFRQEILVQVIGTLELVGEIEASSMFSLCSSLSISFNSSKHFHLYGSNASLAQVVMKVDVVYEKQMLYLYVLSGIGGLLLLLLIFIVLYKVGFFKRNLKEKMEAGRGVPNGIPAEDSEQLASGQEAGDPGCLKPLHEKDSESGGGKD
T2 sequence (P05107 23-769): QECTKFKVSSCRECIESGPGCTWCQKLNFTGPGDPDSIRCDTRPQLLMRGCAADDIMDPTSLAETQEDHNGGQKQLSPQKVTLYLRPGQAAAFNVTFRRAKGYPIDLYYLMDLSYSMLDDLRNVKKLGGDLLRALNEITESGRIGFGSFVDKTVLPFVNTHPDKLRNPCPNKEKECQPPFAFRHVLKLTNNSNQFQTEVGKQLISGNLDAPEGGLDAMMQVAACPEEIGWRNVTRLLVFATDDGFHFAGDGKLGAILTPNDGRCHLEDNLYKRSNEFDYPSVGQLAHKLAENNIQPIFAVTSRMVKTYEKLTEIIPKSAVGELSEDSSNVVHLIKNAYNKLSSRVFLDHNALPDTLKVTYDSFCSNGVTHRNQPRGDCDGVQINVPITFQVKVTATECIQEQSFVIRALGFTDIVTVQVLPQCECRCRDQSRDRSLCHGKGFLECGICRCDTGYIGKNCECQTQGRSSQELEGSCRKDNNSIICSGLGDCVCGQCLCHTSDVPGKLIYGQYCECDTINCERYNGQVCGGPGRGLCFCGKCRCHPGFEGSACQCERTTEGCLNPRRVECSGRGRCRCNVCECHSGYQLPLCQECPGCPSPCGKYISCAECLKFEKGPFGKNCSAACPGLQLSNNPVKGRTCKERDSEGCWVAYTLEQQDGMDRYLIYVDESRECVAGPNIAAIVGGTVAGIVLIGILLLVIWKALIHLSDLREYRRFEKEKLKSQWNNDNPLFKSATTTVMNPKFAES
Procedure: as §1, §2
In relation to LAD (Leukocyte Adhesion Deficiency), LFA-1 ratios are determined by dividing the relative fluorescence units (RFU) of each compound at a concentration of 3 μM over that of the reference standard of THI0349, also at 3 μM, (RFU Compound/RFU of THI0349). Log Ps were calculated by either Chemdraw® version 12 (CambridgeSoft) or ACD/Chemsketch® (ACD/Labs).

| SMILES | LAD Raw Fluorescence Units against LFA-1; Dose 3 µM; Ratio of raw counts Compound/THI0349 [2] | Group against VCAM [1] |
| --- | --- | --- |
| COc1cccc(COCCOCc2csc(N(Cc3cccc(OC)c3)Cc3cccc(OC)c3)n2)c1 [Compound 57, N,N-bis(3-methoxybenzyl)-4-((2-(3-methoxybenzyloxy)ethoxy)methyl)thiazol-2-amine] | 0.25 | I (Group I maintains at least the same potency or better up to more than twice that of the EC50 of THI0349 ran on the same plate) |
| CCOC(=O)c1csc(N(Cc2ccc(-n3ccnc3)cc2)Cc2cccc(OC)c2)n1 [Compound 113, ethyl 2-((4-(1H-imidazol-1-yl)benzyl)(3-methoxybenzyl)amino)thiazole-4-carboxylate] | 0.64 | II (Group II is more than twice that of THI0349 but less than five times THI0349's EC50) |
| COc1cccc(CN(Cc2cccc(OC)c2)c2nc(COCCOc3cccc(OC)c3)cs2)c1 [Compound 47, N,N-bis(3-methoxybenzyl)-4-((2-(3-methoxyphenoxy)ethoxy)methyl)thiazol-2-amine] | 0.7 | I (Group I maintains at least the same potency or better up to more than twice that of the EC50 of THI0349 ran on the same plate) |
| CCOC(=O)c1ccc(N(Cc2cccc(OC)c2)Cc2cccc(OC)c2)cc1 [Compound 85, ethyl 4-(bis(3-methoxybenzyl)amino)benzoate] | 0.03 | III (Group III more than five times the EC50 of THI0349) |
| COc1cccc(CN(Cc2cccc(OC)c2)c2nc(COCCN3CCN(C)CC3)cs2)c1 [Compound 66, N,N-bis(3-methoxybenzyl)-4-((2-(4-methylpiperazin-1-yl)ethoxy)methyl)thiazol-2-amine] | 0.27 | II (Group II is more than twice that of THI0349 but less than five times THI0349's EC50) |
| COc1cccc(CNC(=O)c2coc(N(Cc3cccc(OC)c3)Cc3cccc(OC)c3)n2)c1 [Compound 18, 2-(bis(3-methoxybenzyl)amino)-N-(3-methoxybenzyl)oxazole-4-carboxamide] | 0.17 | II (Group II is more than twice that of THI0349 but less than five times THI0349's EC50) |
| COc1cccc(CN(Cc2cccc(OC)c2)c2nc(COCCN3CCc4ccccc43)cs2)c1 [Compound 88, 4-((2-(indolin-1-yl)ethoxy)methyl)-N,N-bis(3-methoxybenzyl)thiazol-2-amine] | 0.18 | II (Group II is more than twice that of THI0349 but less than five times THI0349's EC50) |
| COc1cccc(CN(Cc2cccc(OC)c2)c2nc(COCCOCCOc3ccc(Cl)cc3)cs2)c1 [Compound 44, 4-((2-(2-(4-chlorophenoxy)ethoxy)ethoxy)methyl)-N,N-bis(3-methoxybenzyl)thiazol-2-amine] | 0.77 | I (Group I maintains at least the same potency or better up to more than twice that of the EC50 of THI0349 ran on the same plate) |
| COc1cccc(CN(Cc2cccc(OC)c2)c2nc(CN3CCOCC3)cs2)c1 [Compound 67, N,N-bis(3-methoxybenzyl)-4-(morpholinomethyl)thiazol-2-amine] | 1.2 | I (Group I maintains at least the same potency or better up to more than twice that of the EC50 of THI0349 ran on the same plate) |
| COc1cccc(CN(Cc2cccc(OC)c2)c2nc(COCCOc3ccccc3)cs2)c1 [Compound 52, N,N-bis(3-methoxybenzyl)-4-((2-phenoxyethoxy)methyl)thiazol-2-amine] | 1.2 | II (Group II is more than twice that of THI0349 but less than five times THI0349's EC50) |
| CCOC(=O)c1csc(N(Cc2cccc(OC)c2)Cc2cccc(-n3cccn3)c2)n1 [Compound 119, ethyl 2-((3-(1H-pyrazol-1-yl)benzyl)(3-methoxybenzyl)amino)thiazole-4-carboxylate] | 0.2 | II (Group II is more than twice that of THI0349 but less than five times THI0349's EC50) |
| COc1cccc(CN(Cc2cccc(OC)c2)c2nc(COCCOc3cccc(N(C)C)c3)cs2)c1 [Compound 48, 4-((2-(3-(dimethylamino)phenoxy)ethoxy)methyl)-N,N-bis(3-methoxybenzyl)thiazol-2-amine] | 0.43 | I (Group I maintains at least the same potency or better up to more than twice that of the EC50 of THI0349 ran on the same plate) |
| COc1cccc(COCCOCCOCc2csc(N(Cc3cccc(OC)c3)Cc3cccc(OC)c3)n2)c1 [Compound 55, N,N-bis(3-methoxybenzyl)-4-((2-(2-((3-methoxybenzyl)oxy)ethoxy)ethoxy)methyl)thiazol-2-amine] | 1.1 | I (Group I maintains at least the same potency or better up to more than twice that of the EC50 of THI0349 ran on the same plate) |

More lines, main results first:

| LAD Raw Fluorescence Units against LFA-1; Dose 3 µM; Ratio of raw counts Compound/THI0349 [2] | SMILES | Group against VCAM [1] |
| --- | --- | --- |
| 1.6 | COc1cccc(CN(Cc2cccc(OC)c2)c2nc(CN3CCCCC3)cs2)c1 [Compound 68, N,N-bis(3-methoxybenzyl)-4-(piperidin-1-ylmethyl)thiazol-2-amine] | II (Group II is more than twice that of THI0349 but less than five times THI0349's EC50) |
| 0.36 | COc1cccc(CN(Cc2cccc(OC)c2)c2nc(CN3CCOCC3)co2)c1 [Compound 81, N,N-bis(3-methoxybenzyl)-4-(morpholinomethyl)oxazol-2-amine] | II (Group II is more than twice that of THI0349 but less than five times THI0349's EC50) |
| 1.6 | COc1cccc(CN(Cc2cccc(OC)c2)c2nc(COCCOCCOc3cccc(OC)c3)cs2)c1 [Compound 42, N,N-bis(3-methoxybenzyl)-4-((2-(2-(3-methoxyphenoxy)ethoxy)ethoxy)methyl)thiazol-2-amine] | I (Group I maintains at least the same potency or better up to more than twice that of the EC50 of THI0349 ran on the same plate) |
| 0.34 | COc1ccc(CN(Cc2ccc(OC)cc2)c2nc(COCCOCCO)cs2)cc1 [Compound 34, 2-(2-((2-(bis(4-methoxybenzyl)amino)thiazol-4-yl)methoxy)ethoxy)ethanol] | III (Group III more than five times the EC50 of THI0349) |
| 0.3 | COCCOc1cccc(CN(Cc2cccc(OC)c2)c2nc(CN3CCOCC3)cs2)c1 [Compound 74, N-(3-methoxybenzyl)-N-(3-(2-methoxyethoxy)benzyl)-4-(morpholinomethyl)thiazol-2-amine] | I (Group I maintains at least the same potency or better up to more than twice that of the EC50 of THI0349 ran on the same plate) |
| 0.31 | COc1cccc(CN(Cc2cccc(OC)c2)c2nc(COCCN3CCOCC3)cs2)c1 [Compound 64, N,N-bis(3-methoxybenzyl)-4-((2-morpholinoethoxy)methyl)thiazol-2-amine] | I (Group I maintains at least the same potency or better up to more than twice that of the EC50 of THI0349 ran on the same plate) |
| 0.31 | COc1cccc(CN(Cc2ccc3ncccc3c2)c2nc(CN3CCOCC3)cs2)c1 [Compound 76, N-(3-methoxybenzyl)-4-(morpholinomethyl)-N-(quinolin-6-ylmethyl)thiazol-2-amine] | II (Group II is more than twice that of THI0349 but less than five times THI0349's EC50) |
| 0.05 | COc1cccc(CN(C)c2nc(C)cs2)c1 [Compound 100, N-(3-methoxybenzyl)-N,4-dimethylthiazol-2-amine] | III (Group III more than five times the EC50 of THI0349) |
